For the experiment, the system named is CEM cells HIV-1 protection, formazan growth assay. Briefly: NCI AIDS Antiviral Assay. Particulars: for IC50: measured here: growth of uninfected CEM cells. In outline:
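CEM (human) cells, HIV-1 infected vs uninfected, 5-point dosing, formazan growth read-out. Retest threshold 50% protection.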

The results in this text go back to PubChem BioAssay AID179 (DTP/NCI, 2004).

The source made the active and inactive calls.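 How the source made its calls: active means compounds giving half or more protection of infected cells from virus-caused growth loss, again on retest; inactive means the rest.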

For `Cc1cc2nc3c4ccccc4scc-3c2cc1C`, the EC50 is over 200 µM and the IC50 was 0.324 µM. With `C[C@@H]1[C@@H](C)C(c2ccccc2)O[Si]1(C(C)(C)C)C(C)(C)C` (some centres not stated), the EC50 was over 100 µM and the 50% inhibitory concentration (IC50) came to 56.2 µM. Turning to `O=C1/C(=C/c2ccccc2)CNC/C1=C\c1ccccc1`, the result was inactive. As for `CCC(C)C(=O)O[C@H]1[C@H](OC(C)=O)[C@H](OC(C)=O)[C@@]2(COC(C)=O)C(OC(C)=O)C(=O)[C@@H]3[C@@H](OC(C)=O)[C@]2(O[C@@]3(C)COC(=O)c2ccccc2)[C@@]1(C)O` (some centres not stated), the result was inactive. As for `CCCCNC(=S)/N=C/c1c(O)c2ccccc2[nH]c1=O`, the EC50 was over 200 µM and the IC50 is over 200 µM. Consider `O=C(C[P+](c1ccccc1)(c1ccccc1)c1ccccc1)C[P+](c1ccccc1)(c1ccccc1)c1ccccc1`, for which the EC50 is over 200 µM and the IC50 worked out at 0.759 µM. `CC(C)=N.[C-]#[O+].[C-]#[O+].[C-]#[O+].[C-]#[O+].[C-]#[O+].[W]`: the EC50 is over 13.8 µM and the IC50 was over 13.8 µM. For the compound `CN1C(=O)C(C)(O)Sc2ccccc21` (configuration not stated), the EC50 is over 1200 µM and the IC50 came to 501 µM. `CC1(C)CC(=O)C2C(C1)Nc1ccccc1NC2c1cccc([N+](=O)[O-])c1` (configuration not stated): the EC50 was over 200 µM and the IC50 stood at 93.3 µM.

Regarding `Nc1ccc(S(=O)(=O)Nc2nc3ccccc3nc2N2CCCCC2)cc1`, the EC50 was over 200 µM and the IC50 came to 72.4 µM. In the case of `Cc1cccc(C(C)C)c1N1C(=O)C(=O)C(c2nc3ccccc3o2)C(=O)C1=O`, the EC50 is over 13.5 µM and the IC50 is over 13.5 µM.

Consider `N#CC1(C#N)N[C@@H](c2ccsc2)[C@H]2C(=O)N(c3ccccc3)C(=O)[C@H]21`, for which the EC50 is over 200 µM and the IC50 turned out to be 53.7 µM. On the same counts, the results for `CC(=O)OCCOCn1c2c(c(=O)[nH]c1=O)CCC2` are over 200 µM and over 200 µM. On the same counts, the results for `C/C(O)=C/c1nc2sc(C)c(C)c2c(=O)s1` are over 200 µM and 39.8 µM. As for `Cc1nc2ccc(S(=O)(=O)Nc3ccccn3)cc2c(=O)n1NS(=O)(=O)c1ccccn1`, the EC50 was over 200 µM and the IC50 was over 200 µM. For `CN(C)C(=O)Nc1cc2c3c(c1)CCCN3CCC2`, the EC50 is 81.3 µM and the IC50 came out at 174 µM. For the compound `NC(=S)C(=S)N/C=C(/c1ccc(Cl)cc1)S(=O)(=O)Cc1ccc(Cl)cc1`, the outcome was inactive. With `c1ccc(C2N3CCCCC3[C@@H]3c4[nH]c5ccccc5c4CCN23)nc1` (some centres not stated), the EC50 is over 105 µM and the IC50 was over 105 µM. In the case of `COc1ccc2cc(C(=O)NCCc3ccccc3)ccc2c1OC`, the EC50 was over 200 µM and the IC50 is over 200 µM. As to `O=C1C=CC(=O)c2c(O)cccc21`, the outcome was inactive. Consider `COc1cc(C(O)CCBr)c(OC)cc1C` (configuration not stated), for which the EC50 is over 200 µM and the IC50 is 2.29 µM. For the compound `CC(NC(=O)C(N)CC(=O)O)NC(=O)N(C)C(C)(C)C` (configuration not stated), the EC50 was over 200 µM and the IC50 was over 200 µM. Take `COc1ccc(OC)c(NC(=O)C(=O)CC(=O)c2sc(-n3nc(-c4ccccc4)cc3-c3ccccc3)nc2C)c1`: the EC50 was over 437 µM and the 50% inhibitory concentration (IC50) came to 363 µM. On the same counts, the results for `CCn1nc2c3c(ncn3C(C)(C)O2)c1=O` are over 200 µM and over 200 µM. In the case of `COC(=O)c1cc(C(=CCC[C@H]2CC[C@@]3(C)C(CCC4C3CC[C@@]3(C)C4CC[C@@H]3C(C)CCCC(C)C)C2)c2cc(Cl)c(OC(=O)c3ccccc3)c(C(=O)OC)c2)cc(Cl)c1OC(=O)c1ccccc1` (some centres not stated), the EC50 is over 200 µM and the IC50 is over 200 µM. In the case of `CNC(=O)n1ncc2ccc([N+](=O)[O-])cc21`, the EC50 was over 200 µM and the half-maximal inhibitory concentration (IC50) was 158 µM. `CC(=O)OCC(OC(C)=O)C(OC(C)=O)C(C=NN(C(C)=O)S(=O)(=O)c1ccc(/C=C2\NC(=O)NC2=O)cc1)OC(C)=O` (configuration not stated): the EC50 is over 200 µM and the IC50 was found to be 97.7 µM. Turning to `CC(NC(=O)NC(C)(C)C)NC(=O)C(N)CC(=O)O` (configuration not stated), the EC50 is over 200 µM and the IC50 is over 200 µM. For `CCC1NC(=O)C1NC(=O)OC` (configuration not stated), the outcome was inactive.

On to `COc1cc(NCc2ccc3nc(-c4ccccc4)c(N)nc3c2)cc(OC)c1OC`, for which the EC50 was over 200 µM and the IC50 was 49 µM.

In the case of `O=C1NC(N/N=C\C(O)C(O)C(O)CO)=N/C1=C/c1ccc(Cl)cc1` (configuration not stated), the EC50 was over 200 µM, the outcome was inactive and the IC50 came to 30.2 µM. As for `O=C(Nc1nc2ccccc2n1Cc1ccccc1)C(=O)NC12CC3CC(CC(C3)C1)C2`, the EC50 is over 43.7 µM and the IC50 was over 43.7 µM.

For `Cc1ccc(OCC2OC(n3cnc4c(Br)nc(Br)nc43)CC2Oc2ccc(C)cc2)cc1` (configuration not stated), the EC50 is over 200 µM and the IC50 was determined as 2.09 µM. Consider `CC1(C)OP23(NC(=O)OC2(C(F)(F)F)c2ccccc2O3)OC1(C)C` (configuration not stated), for which the EC50 is over 245 µM and the half-maximal inhibitory concentration (IC50) is over 245 µM. For `CCOC(=O)c1cnc2c3c(noc13)CCC2`, the EC50 was over 200 µM and the IC50 turned out to be 34.7 µM. For the compound `C(=NCCCN1CCN(CCCN=Cc2cccc3ccccc23)CC1)c1cccc2ccccc12`, the EC50 is over 200 µM and the IC50 came out at 46.8 µM. Consider `CSC1=Nc2cccnc2Nc2cscc21`, for which the EC50 was over 200 µM and the IC50 turned out to be 1.26 µM.

Regarding `Cc1nc(NCc2ccccc2)c2cc[nH]c2n1`, the EC50 is over 174 µM and the IC50 came to 107 µM.

For the compound `CN(C)C(=S)/N=c1\ssc(=S)n1Cc1ccco1`, the result was inactive. For the compound `O=C1OC[C@@H]2CCCN2Cc2ccccc21`, the EC50 is over 87.1 µM and the IC50 is over 87.1 µM. With `CCCCCCCCCCCCCCCC(=O)OC1C(O)C(O)C(O)C(O)C12CO2` (configuration not stated), the EC50 was over 20 µM and the IC50 came to 7.08 µM.

In the case of `O=c1[nH]c(=O)n(C2CC(O)C(CO)O2)cc1C(OCC(F)(F)F)OCC(F)(F)F` (configuration not stated), the EC50 was over 251 µM and the IC50 was found to be 12 µM.

As to `COC(=O)C1C=CN(N(C)C)C2=C1C(=O)c1c(O)cccc1C2=O` (configuration not stated), the EC50 was over 200 µM and the IC50 came out at 1.74 µM. Regarding `O=S1Nc2cccc(C(F)(F)F)c2S1` (configuration not stated), the EC50 is over 57.5 µM and the IC50 is over 57.5 µM. With `CN1c2ccccc2C(=O)NC12CCN(CCCC(=O)c1ccc(F)cc1)CC2`, the EC50 is over 200 µM and the IC50 was over 100 µM. As to `CN(C)c1ccc(C=C2C(=O)c3ccccc3C2=O)cc1`, the result was inactive. For `[N-]=[N+]=Nc1ccc(S(=O)(=O)Oc2cc(OS(=O)(=O)c3ccc(N=[N+]=[N-])cc3)cc(OS(=O)(=O)c3ccc(N=[N+]=[N-])cc3)c2)cc1`, the EC50 was over 4.07 µM and the IC50 was over 4.07 µM. Take `CC(C)N1C(=O)N(Cl)C2C1N(Cl)C(=O)N2Cl` (configuration not stated): the EC50 is over 200 µM and the 50% inhibitory concentration (IC50) was over 200 µM. As for `CC1CCC(C(C)C)/C(=N/NC(=O)CC#N)C1` (configuration not stated), the EC50 is over 200 µM and the IC50 was over 200 µM. As to `Cc1ccc(N2C(=O)N(c3ccc(C)cc3)C3(SC=NN3C)C2=O)cc1` (configuration not stated), the result was inactive. Turning to `Nc1o[nH]c(=O)c1C1CCCCC1`, the EC50 was over 200 µM and the IC50 was over 200 µM. `Cn1c2c(c(=O)[nH]c1=O)OCN(Cc1ccccc1)C2`: the EC50 is over 251 µM and the IC50 was found to be 29.5 µM.
